Converted amounts (≈) assume the structure as drawn.
Assays:
Carbonic anhydrase 2 [1] = molecular target: T1, Carbonic anhydrase 2 (Homo sapiens, UniProt P00918); assay: Binding affinity to CA2 (unknown origin) assessed as inhibition constant
Carbonic anhydrase 2 [2] = molecular target: T1, Carbonic anhydrase 2; assay: Binding affinity to human CA2 in U2OS cells assessed as inhibition constant; type: cell-based
Bacillus subtilis [3] = assay: Antibacterial activity against Bacillus subtilis ATCC 6633 assessed as minimum bactericidal concentration incubated for 24 hrs; type: functional
Candida albicans [4] = assay: Antifungal activity against Candida albicans ATCC 28367 assessed as reduction in fungal growth incubated for 24 hrs by CLSI based analysis; type: functional
Escherichia coli [5] = assay: Antibacterial activity against Escherichia coli JW 1772 assessed as reduction in microbial growth after 24 hrs by two-fold serial dilution method; type: functional
Escherichia coli [6] = assay: Antibacterial activity against Escherichia coli assessed as minimum bactericidal concentration incubated for 24 hrs; type: functional
Nakaseomyces glabratus = assay: Antifungal activity against Candida glabrata ATCC 15126 assessed as reduction in fungal growth incubated for 24 hrs by CLSI based analysis; type: functional
Salmonella typhimurium = assay: Antibacterial activity against Salmonella typhimurium DT104 ATCC 14028 assessed as reduction in microbial growth measured after 24 hrs by CLSI-based method; type: functional, Salmonella enterica subsp. enterica serovar Typhimurium; settings: Salmonella enterica
Bacillus subtilis [7] = assay: Antibacterial activity against Bacillus subtilis ATCC 6633 assessed as reduction in microbial growth after 24 hrs by two-fold serial dilution method; type: functional
Staphylococcus aureus [8] = assay: Bactericidal activity against Staphylococcus aureus ATCC 25923 assessed as reduction in bacterial cell growth incubated for 24 hrs by CLSI-based analysis; type: functional
Staphylococcus aureus [9] = assay: Antibacterial activity against Staphylococcus aureus ATCC 25923 assessed as reduction in microbial growth after 24 hrs by two-fold serial dilution method; type: functional
Escherichia coli [10] = assay: Antibacterial activity against Escherichia coli assessed as zone of inhibition; type: functional
Klebsiella aerogenes = assay: Antibacterial activity against Enterobacter aerogenes assessed as zone of inhibition; type: functional
Plasmodium falciparum = assay: Antiplasmodial activity against Plasmodium falciparum assessed as parasitic growth inhibition; type: functional, organism-based
Acinetobacter baumannii [11] = assay: Antibacterial activity against Acinetobacter baumannii assessed as reduction in bacterial growth by Mueller-Hinton broth microdilution method; type: functional, organism-based
Candida albicans [12] = assay: Antibacterial activity against Candida albicans assessed as reduction in microbial growth measured after 24 hrs by Mueller-Hinton broth based two-fold serial dilution method; type: functional
Staphylococcus aureus [13] = assay: Antibacterial activity against Staphylococcus aureus ATCC 25900 assessed as reduction in microbial growth measured after 24 hrs by Mueller-Hinton broth based two-fold serial dilution method; type: functional
Bacillus cereus = assay: Antibacterial activity against Bacillus cereus assessed as reduction in microbial growth measured after 24 hrs by Mueller-Hinton broth based two-fold serial dilution method; type: functional
Escherichia coli [14] = assay: Antibacterial activity against Escherichia coli ATCC 25922 assessed as reduction in microbial growth measured after 24 hrs by Mueller-Hinton broth based two-fold serial dilution method; type: functional
Pseudomonas aeruginosa [15] = assay: Antibacterial activity against Pseudomonas aeruginosa ATCC 27853 assessed as reduction in microbial growth measured after 24 hrs by Mueller-Hinton broth based two-fold serial dilution method; type: functional
Acinetobacter baumannii [16] = assay: Antibacterial activity against Acinetobacter baumannii assessed as reduction in microbial growth measured after 24 hrs by Mueller-Hinton broth based two-fold serial dilution method; type: functional
Enterococcus faecalis [17] = assay: Antibacterial activity against Enterococcus faecalis assessed as inhibition of bacterial growth measured after 24 hrs by CLSI-based microdilution method; type: functional
Pseudomonas aeruginosa [18] = assay: Antibacterial activity against Pseudomonas aeruginosa assessed as inhibition of bacterial growth measured after 24 hrs by CLSI-based microdilution method; type: functional
Klebsiella pneumoniae [19] = assay: Antibacterial activity against Klebsiella pneumonia assessed as inhibition of bacterial growth measured after 24 hrs by CLSI-based microdilution method; type: functional
Staphylococcus aureus [20] = assay: Antibacterial activity against Staphylococcus aureus assessed as inhibition of bacterial growth measured after 24 hrs by CLSI-based microdilution method; type: functional
Escherichia coli [21] = assay: Antibacterial activity against Escherichia coli assessed as reduction in bacterial growth measured after 24 hrs by CLSI-based Mueller-Hinton broth dilution method; type: functional
Neisseria gonorrhoeae = assay: Antibacterial activity against Neisseria gonorrhoeae ATCC 49226 assessed as reduction in bacterial growth; type: functional
Klebsiella pneumoniae [22] = assay: Antibacterial activity against carbapenem resistance Klebsiella pneumoniae ATCC BAA-1705 assessed as inhibition of microbial growth measured after 24 hrs by microplate reader analysis; type: functional
Enterococcus faecalis [23] = assay: Antibacterial activity against Enterococcus faecalis assessed as bacterial growth inhibition; type: functional
Staphylococcus aureus [24] = assay: Antibacterial activity against methicillin-resistant Staphylococcus aureus assessed as inhibition of cell growth; type: functional
Escherichia coli [25] = assay: Antibacterial activity against Escherichia coli ATCC 8730 assessed as reduction in bacterial cell growth measured after 24 hrs by microplate reader based analysis; type: functional
Enterococcus faecium = assay: Antibacterial activity against Enterococcus faecium assessed as bacterial growth inhibition; type: functional
[26] = Inhibition of Bordetella pertussis Adenylate cyclase toxin
Acinetobacter baumannii [27] = assay: Antibacterial activity against Acinetobacter baumannii assessed as reduction in bacterial growth measured after 24 hrs by Mueller-Hinton broth dilution method; type: functional
[28] = Binding affinity to Sporosarcina pasteurii Urease assessed as inhibition constant
Staphylococcus aureus [29] = assay: Antibacterial activity against methicillin-resistant Staphylococcus aureus assessed as reduction in bacterial cell growth incubated for 24 hrs by broth microdilution method; type: functional
Staphylococcus aureus [30] = assay: Antibacterial activity against methicillin-susceptible Staphylococcus aureus assessed as reduction in bacterial cell growth; type: functional
[31] = Inhibition of Bordetella pertussis Adenylate cyclase toxin in mouse J774.A1 cells; type: cell-based
[32] = Inhibition of GIM1 (unknown origin)
Bacillus subtilis [33] = assay: Antibacterial activity against Bacillus subtilis assessed as reduction in bacterial growth; type: functional
Enterococcus durans = assay: Antibacterial activity against Enterococcus durans assessed as reduction in bacterial growth; type: functional
Pseudomonas aeruginosa [34] = assay: Antibacterial activity against Pseudomonas aeruginosa assessed as reduction in bacterial growth; type: functional
Escherichia coli [35] = assay: Antibacterial activity against Escherichia coli assessed as reduction in bacterial growth; type: functional
[36] = Binding affinity to Escherichia coli ThiM TPP riboswitch assessed as dissociation constant
Staphylococcus aureus [37] = assay: Antibacterial activity against methicillin-Staphylococcus aureus ATCC 43300 assessed as reduction in bacterial growth measured after 24 hrs by broth microdilution method; type: functional
[38] = Binding affinity to D-Ala-D-Ala assessed as dissociation constant

COCCOP(N)(=O)c1ccccc1 (stereo not drawn)
Ki (Carbonic anhydrase 2 [1]): 20 nM
Ki (Carbonic anhydrase 2 [2]): 32800 nM

O/N=C1\CCCC1P(=S)(c1ccccc1)c1ccccc1 (stereo not drawn)
MBC (Bacillus subtilis [3]): 2 µg/mL (≈ 6.34 µM)
MIC (Candida albicans [4]): 0.1 µg/mL (≈ 0.317 µM)
MIC (Escherichia coli [5]): 0.1 µg/mL
MBC (Escherichia coli [6]): 2 µg/mL (≈ 6.34 µM)
MIC (Nakaseomyces glabratus): 0.1 µg/mL (≈ 0.317 µM)
MIC (Salmonella typhimurium): 0.1 µg/mL
MIC (Bacillus subtilis [7]): 0.1 µg/mL
MBC (Staphylococcus aureus [8]): 2 µg/mL (≈ 6.34 µM)
MIC (Staphylococcus aureus [9]): 0.1 µg/mL

CCCCCCCC[P+](CCCC)(CCCCCCCC)CCCCCCCC.CS(=O)(=O)[O-]
inhibition zone (IZ) (Escherichia coli [10]): 14 mm
inhibition zone (IZ) (Klebsiella aerogenes): 14 mm

CCCCCCCC(=O)OCOP(=O)(CCCC(=O)N(C)O)OCOC(=O)CCCCCCC
IC50 (Plasmodium falciparum): 50 nM

CCCCCCCCCC[P+](CCCCCC[P+](CCCCCCCCCC)(c1ccccc1)c1ccccc1)(c1ccccc1)c1ccccc1
IC50 (Acinetobacter baumannii [11]): 3000 nM

CCOP(=O)(OCC)C(Nc1ncc(-c2cc3ccccc3oc2=O)s1)c1ccccc1Br (stereo not drawn)
MIC (Candida albicans [12]): 0.125 µg/mL
MIC (Staphylococcus aureus [13]): 0.125 µg/mL
MIC (Bacillus cereus): 0.125 µg/mL
MIC (Escherichia coli [14]): 0.125 µg/mL
MIC (Pseudomonas aeruginosa [15]): 0.125 µg/mL
MIC (Acinetobacter baumannii [16]): 0.125 µg/mL

CCCCc1nc(Cl)c(C(Nc2ccc(S(N)(=O)=O)cc2)P(=O)(OCC)OCC)n1Cc1ccc(Cl)cc1 (stereo not drawn)
MIC (Enterococcus faecalis [17]): 4 µg/mL (≈ 6.63 µM)
MIC (Pseudomonas aeruginosa [18]): 4 µg/mL (≈ 6.63 µM)
MIC (Klebsiella pneumoniae [19]): 4 µg/mL (≈ 6.63 µM)
MIC (Staphylococcus aureus [20]): 4 µg/mL (≈ 6.63 µM)
MIC (Escherichia coli [21]): 2 µg/mL (≈ 3.31 µM)

C=C(C/C=C(\C)CCC=C(C)C)CCC(C)(C)/C=C/CC/C(C)=C\CO[C@H](COP(=O)(O)O[C@H]1O[C@H](C(N)=O)[C@@](C)(O)[C@H](OC(N)=O)[C@H]1O[C@@H]1O[C@H](CO[C@@H]2O[C@H](CO)[C@@H](O)[C@H](O)[C@H]2O)[C@@H](O[C@@H]2O[C@H](C)[C@@H](O[C@@H]3O[C@H](C(=O)NC4=C(O)CCC4=O)[C@H](O)[C@H](O)[C@H]3O)[C@H](O)[C@H]2NC(C)=O)[C@H](O)[C@H]1NC(C)=O)C(=O)O
MIC (Neisseria gonorrhoeae): 0.004 µg/mL (≈ 0.00253 µM)

C[C@H](N)C(=O)N[C@@H](C)C(=O)N[C@@H](C)P(=O)(O)O
MIC90 (Klebsiella pneumoniae [22]): 4 µg/mL
MIC90 (Enterococcus faecalis [23]): 0.5 µg/mL (≈ 1.87 µM)
MIC90 (Staphylococcus aureus [24]): 8 µg/mL (≈ 29.9 µM)
MIC90 (Escherichia coli [25]): 0.25 µg/mL (≈ 0.936 µM)
MIC90 (Enterococcus faecium): 2 µg/mL (≈ 7.48 µM)

CC(C)OC(=O)[C@H](Cc1ccccc1)NP(=O)(COCCn1cnc2c(N)nc(F)nc21)N[C@@H](Cc1ccccc1)C(=O)OC(C)C
IC50 [26]: 145 nM

CCCCCCCCCCCC[P+](c1ccccc1)(c1ccccc1)c1ccccc1
MIC (Acinetobacter baumannii [27]): 6.25 µM

CN(C)CP(=O)(O)O
Ki [28]: 13000 nM

CCCCCC[P+](/C=C(\c1ccccc1)c1cc(Cl)ccc1O)(c1ccccc1OC)c1ccccc1OC
MIC (Staphylococcus aureus [29]): < 1 µM

CCCCCCCCCC[P+](C)(C)CCCCCCCCCC.[Cl-] [DIDECYLDIMETHYLPHOSPHONIUM CHLORIDE]
MIC (Staphylococcus aureus [30]): 0.78 µg/mL

O=P(c1ccccc1)(c1ccccc1)C1CCC/C1=N\O (stereo not drawn)
MBC (Bacillus subtilis [3]): 2 µg/mL (≈ 6.68 µM)
MIC (Candida albicans [4]): 0.1 µg/mL (≈ 0.334 µM)
MIC (Escherichia coli [5]): 0.1 µg/mL
MBC (Escherichia coli [6]): 2 µg/mL (≈ 6.68 µM)
MIC (Nakaseomyces glabratus): 0.1 µg/mL (≈ 0.334 µM)
MIC (Salmonella typhimurium): 0.1 µg/mL
MIC (Bacillus subtilis [7]): 0.1 µg/mL
MBC (Staphylococcus aureus [8]): 2 µg/mL (≈ 6.68 µM)
MIC (Staphylococcus aureus [9]): 0.1 µg/mL

Nc1ncnc2c1ncn2CCOCP(=O)(O)OP(=O)(O)OP(=O)(O)O [ADEFOVIR DIPHOSPHATE]
IC50 [26]: 18 nM
IC50 [31]: 150 nM

COP(=O)(CCSC(C)=O)NCc1ccccn1 (stereo not drawn)
IC50 [32]: 86000 nM

Cn1nccc1CP(=O)(Cc1ccnn1C)Cc1ccnn1C
MIC (Bacillus subtilis [33]): 0.15 µg/mL (≈ 0.451 µM)
MIC (Enterococcus durans): 0.15 µg/mL (≈ 0.451 µM)
MIC (Pseudomonas aeruginosa [34]): 0.15 µg/mL (≈ 0.451 µM)
MIC (Escherichia coli [35]): 0.15 µg/mL (≈ 0.451 µM)

Cc1ncc(C[n+]2csc(CCOP(=O)(O)CP(=O)(O)O)c2C)c(N)n1
Kd [36]: 20 nM

CS(=O)(=O)[O-].O=C(CCc1ccc(O)c(O)c1)NCCCCCCCCCC[P+](c1ccccc1)(c1ccccc1)c1ccccc1
MIC (Staphylococcus aureus [37]): 0.25 µg/mL

Cc1ncc(Cn2cc(CCOP(=O)(O)CP(=O)(O)O)nn2)c(N)n1
Kd [36]: 9 nM

CN(C)CP(C)(=O)O [(DIMETHYLAMINO)METHYL(METHYL)PHOSPHINIC ACID]
Ki [28]: 620 nM

CCC(CP(=O)(O)C(C)N)C(=O)O (stereo not drawn)
Ki [38]: 90 nM
